Data from patent US4587256A, “Novel thiazolidine derivatives” (Hoffmann-La Roche Inc., priority 1983, dated 1986).

Experiments:
[1] = target: T1, aldose reductase from calves lenses (Bos taurus, UniProt P16116); experiment: inhibiting activity of aldose reductase from calves lenses; assay type: biochemical; conditions: read-out: IC50 values (concentrations which bring about 50% enzyme inhibition)
T1 construct: aldose reductase from calves lenses; from tissue; host or cells: calf lens

[2] = test system: streptozotocin-treated, diabetic rats; experiment: sorbitol concentration in eye lens and sciatic nerve of streptozotocin-treated, diabetic rats; assay type: in vivo; conditions: 3 times 20 mg/kg p.o. (4, 8 and 24 hours after streptozotocin), 3 hours after last dosage
Protocol: (§1) Furthermore, the compound of formula I in which R^1 is fluorine and R^2 is hydrogen was investigated for its activity on galactosaemic rats (30% galactose diet). More particularly, the dulcitol concentration in the eye lens was determined after 5 applications of 5 and of 20 mg/kg body weight per os over 2 days. Similarly, 20 mg/kg were administered intraperitoneally in an additional experiment. […] The same compound was also administered to streptozotocin-treated, diabetic rats (3 times 20 mg/kg p.o., 4, 8 and 24 hours after streptozotocin administration). Three (3) hours after the administration of the last dosage, the sorbitol concentration was determined in the eye lens and in the sciatic nerve.

galactosaemic rats = experiment: dulcitol concentration in the eye lens of galactosaemic rats (30% galactose diet); assay type: in vivo; conditions: compared to untreated galactosaemic animals
Protocol: as §1

Structure (SMILES) | IC50 [1] | sorbitol concentration in the eye lens [2] | sorbitol concentration in the sciatic nerve [2] | dulcitol concentration in the eye lens (galactosaemic rats; 20 mg/kg administered intraperitoneally) | dulcitol concentration in the eye lens (galactosaemic rats; 5 applications of 5 mg/kg body weight per os over 2 days) | dulcitol concentration in the eye lens (galactosaemic rats; 5 applications of 20 mg/kg body weight per os over 2 days)
CC(=O)Nc1cc(F)cc2c1OCCC21SC(=O)NC1=O (racemic) [(±)-6-fluoro-8-acetamido-2,3-dihydrospiro[4H-1-benzopyran-4,5'-thiazolidine]-2',4'-dione] | 0.008 µM | – | – | – | – | –
O=C1NC(=O)C2(CCOc3c([N+](=O)[O-])cc(F)cc32)S1 (racemic) [(±)-6-fluoro-8-nitro-2,3-dihydrospiro[4H-1-benzopyran-4,5'-thiazolidine]-2',4'-dione] | 0.089 µM | – | – | – | – | –
O=C1NC(=O)C2(CCOc3ccc(F)cc32)S1 (racemic) [(±)-6-fluoro-2,3-dihydrospiro[4H-1-benzopyran-4,5'-thiazolidine]-2',4'-dione] | 0.1 µM | clear decrease | clear decrease | significant decrease | significant decrease | significant decrease
